Results from BindingDB's records for doi:10.7270/Q2CJ8BXT (Burnham Center For Chemical Genomics, 2010).

Biological target: T1, Type-1 angiotensin II receptor (Homo sapiens, UniProt P30556)
T1 sequence (P30556 whole entry): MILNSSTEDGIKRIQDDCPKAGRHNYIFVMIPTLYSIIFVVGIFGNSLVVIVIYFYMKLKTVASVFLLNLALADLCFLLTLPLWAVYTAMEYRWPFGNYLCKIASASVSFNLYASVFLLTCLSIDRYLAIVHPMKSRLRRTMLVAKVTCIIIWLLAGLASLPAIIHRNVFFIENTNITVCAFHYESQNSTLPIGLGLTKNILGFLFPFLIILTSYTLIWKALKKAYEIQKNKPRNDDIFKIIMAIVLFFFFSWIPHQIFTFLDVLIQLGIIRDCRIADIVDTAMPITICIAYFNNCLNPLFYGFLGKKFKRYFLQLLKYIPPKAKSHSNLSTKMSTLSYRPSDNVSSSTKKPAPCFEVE
Assay: AT1 receptor antagonists, dose response, selectivity assay for APJ receptor antagonist project, cell-based, uHTS hits (AID 463214)

| IC50 | SMILES |
| --- | --- |
| 34.6 µM | COc1ccc2c(c1)C(O)C(=O)[C@H](c1ccc(OC)c(Br)c1)O2 (some centres not stated) |
| 28.7 µM | Cc1ncc(C=O)c(CNNc2ccc(C(F)(F)F)cn2)c1O |
| 36 µM | CCOC(=O)C1C(C)=NC2=C(C(=O)CC(c3cccs3)C2)C1c1cccs1 (configuration not stated) [2-Methyl-5-oxo-4,7-di-thiophen-2-yl-1,4,5,6,7,8-hexahydro-quinoline-3-carboxylic acid ethyl ester] |
| 35.3 µM | Cc1[nH]n(C(N)=S)c(=O)c1N=Nc1ccc([N+](=O)[O-])cc1 [3-Methyl-4-(4-nitro-phenylazo)-5-oxo-4,5-dihydro-pyrazole-1-carbothioic acid amide] |
| 28.4 µM | COC(=O)c1[nH]nc(C(O)c2ccc(Cl)cc2)c1-c1ccc(OC)cc1 (configuration not stated) [MLS000702189] |
| 3.63 µM | O=C1C=CC([N+](=O)[O-])=CC1CN=Nc1ccc(Cl)nn1 (configuration not stated) [SMR000184399] |
| 39.9 µM | CCOC(=O)c1[nH]nc(C(O)c2ccc(Cl)cc2)c1-c1ccccc1 (configuration not stated) [SMR000271792] |
